Laboratory results from BindingDB's records for doi:10.1021/jm001134q (Linkoping University, 2001).

The compounds below were run against T1, Dimer of Gag-Pol polyprotein [489-587] (Human immunodeficiency virus 1, UniProt P12497) (assay: Protease Inhibition Assay). Conditions: pH 5; 30 °C.
T1 construct: 489-587
Experimental: A fluorimetric assay was used to determine the effects of the inhibitors on HIV-1 protease. This assay used an internally quenched fluorescent peptide substrate. The measurements were performed in 96-well plates with a Fluoroscan plate reader. Excitation and emission wavelengths were 355 nm and 500 nm, respectively.
O=C(N[C@H]1c2ccccc2C[C@H]1O)[C@H](OCc1ccccc1)[C@H](O)[C@@H](O)[C@@H](OCc1ccccc1)C(=O)N[C@H]1c2ccccc2C[C@H]1O [symmetric/asymmetric inhibitor 2] showed a Ki of 1.22 nM. Work on O=C(N[C@H]1c2ccccc2C[C@H]1O)[C@H](OCc1ccc(F)c(F)c1)[C@H](O)[C@@H](O)[C@@H](OCc1ccc(F)c(F)c1)C(=O)N[C@H]1c2ccccc2C[C@H]1O [N1,N6-Bis-[(2R)-hydroxy-1(S)-indanyl]-(2R,3R,4R,5R)-2.5-bis-(3,4-difluorobenzyloxy)-3,4-dihydroxyhexanediamide] yielded a Ki of 3.9 nM. In the case of O=C(N[C@H]1c2ccccc2C[C@H]1O)[C@H](OCc1cc(F)cc(F)c1)[C@H](O)[C@@H](O)[C@@H](OCc1cc(F)cc(F)c1)C(=O)N[C@H]1c2ccccc2C[C@H]1O [(2R,3R,4R,5R)-2,5-bis[(3,5-difluorophenyl)methoxy]-3,4-dihydroxy-N,N'-bis[(1S,2R)-2-hydroxy-2,3-dihydro-1H-inden-1-yl]hexanediamide], the Ki is reported as 5 nM. With O=C(N[C@H]1c2ccccc2C[C@H]1O)[C@H](OCc1ccc(F)cc1)[C@H](O)[C@@H](O)[C@@H](OCc1ccc(F)cc1)C(=O)N[C@H]1c2ccccc2C[C@H]1O [(2R,3R,4R,5R)-2,5-bis[(4-fluorophenyl)methoxy]-3,4-dihydroxy-N,N'-bis[(1S,2R)-2-hydroxy-2,3-dihydro-1H-inden-1-yl]hexanediamide] the Ki was 5.39 nM. Compound O=C(N[C@H]1c2ccccc2C[C@H]1O)[C@H](OCc1cccc(F)c1)[C@H](O)[C@@H](O)[C@@H](OCc1cccc(F)c1)C(=O)N[C@H]1c2ccccc2C[C@H]1O [(2R,3R,4R,5R)-2,5-bis[(3-fluorophenyl)methoxy]-3,4-dihydroxy-N,N'-bis[(1S,2R)-2-hydroxy-2,3-dihydro-1H-inden-1-yl]hexanediamide] has a Ki of 7.13 nM. Compound O=C(N[C@H]1c2ccccc2C[C@H]1O)[C@H](OCc1ccccc1F)[C@H](O)[C@@H](O)[C@@H](OCc1ccccc1F)C(=O)N[C@H]1c2ccccc2C[C@H]1O [(2R,3R,4R,5R)-2,5-bis[(2-fluorophenyl)methoxy]-3,4-dihydroxy-N,N'-bis[(1S,2R)-2-hydroxy-2,3-dihydro-1H-inden-1-yl]hexanediamide] has a Ki of 3.26 nM. For O=C(N[C@H]1c2ccccc2C[C@H]1O)[C@H](OCc1cccc(F)c1F)[C@H](O)[C@@H](O)[C@@H](OCc1cccc(F)c1F)C(=O)N[C@H]1c2ccccc2C[C@H]1O [N1,N6-Bis-[(2R)-hydroxy-1(S)-indanyl]-(2R,3R,4R,5R)-2.5-bis-(2,3-difluorobenzyloxy)-3,4-dihydroxyhexanediamide], the Ki was 4 nM. O=C(N[C@H]1c2ccccc2C[C@H]1O)[C@H](OCc1cc(F)ccc1F)[C@H](O)[C@@H](O)[C@@H](OCc1cc(F)ccc1F)C(=O)N[C@H]1c2ccccc2C[C@H]1O [(2R,3R,4R,5R)-2,5-bis[(2,5-difluorophenyl)methoxy]-3,4-dihydroxy-N,N'-bis[(1S,2R)-2-hydroxy-2,3-dihydro-1H-inden-1-yl]hexanediamide] showed a Ki of 3.29 nM. For O=C(N[C@H]1c2ccccc2C[C@H]1O)[C@H](OCc1ccc(F)cc1F)[C@H](O)[C@@H](O)[C@@H](OCc1ccc(F)cc1F)C(=O)N[C@H]1c2ccccc2C[C@H]1O [N1,N6-Bis-[(2R)-hydroxy-1(S)-indanyl]-(2R,3R,4R,5R)-2.5-bis-(2,4-difluorobenzyloxy)-3,4-dihydroxyhexanediamide], the Ki was 1.65 nM. O=C(N[C@H]1c2ccccc2C[C@H]1O)[C@H](OCc1c(F)cccc1F)[C@H](O)[C@@H](O)[C@@H](OCc1c(F)cccc1F)C(=O)N[C@H]1c2ccccc2C[C@H]1O [N1,N6-Bis-[(2R)-hydroxy-1(S)-indanyl]-(2R,3R,4R,5R)-2.5-bis-(2,6-difluorobenzyloxy)-3,4-dihydroxyhexanediamide] was tested, and the Ki was 1.64 nM.
